Test results from patent publication US9695155B2, “Herbicidal substituted pyrimidinyloxy benzene compounds” (E. I. DU PONT DE NEMOURS AND COMPANY, priority 2013, dated 2017).

Columns and labels:
kochia [1] = assay: Test A preemergence; type: in vivo, Kochia scoparia; settings: for Plant response rating, Kochia: 0 to 100 scale where 0 is no effect and 100 is complete control
Summary of the method: (§1)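 Greenhouse pot test, loam/sand soil. Formulation: non-phytotoxic solvent mix plus surfactant. Pre: directed spray onto soil after sowing. Post: plants at 1–2 leaf, 2–10 cm. Rated visually vs untreated controls at ~10 d, 0 (no effect) to 100 (complete control).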

barnyardgrass [2] = assay: Test B flooded paddy test; type: in vivo, Echinochloa crus-galli; settings: Flood, 250 g ai/ha; 0 to 100 scale where 0 is no effect and 100 is complete control
Summary of the method: (§2)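 Greenhouse flooded-pot test: compounds dosed into 3 cm standing water over 2-leaf plants, flood held constant. Rated visually after 13–15 days on 0–100 (complete control = 100); a dash marks no test result.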

ragweed [3] = assay: Test A preemergence; type: in vivo, Ambrosia elatior; settings: for Plant response rating, Ragweed: 0 to 100 scale where 0 is no effect and 100 is complete control
Summary of the method: as §1

galium = assay: Test A postemergence; type: in vivo, Galium aparine
Summary of the method: as §1

corn = assay: Test A postemergence; type: in vivo, Zea mays
Summary of the method: as §1

pigweed [4] = assay: Test A postemergence; type: in vivo, Amaranthus retroflexus; settings: for Plant response rating, Pigweed: 0 to 100 scale, 0 no effect, 100 complete control
Summary of the method: as §1

Italian ryegrass [5] = assay: Test A postemergence; type: in vivo, Lolium multiflorum; settings: for Plant response rating, Ryegrass, Italian: 0 to 100 scale, 0 no effect, 100 complete control
Summary of the method: as §1

Italian ryegrass [6] = assay: Test A preemergence; type: in vivo, Lolium multiflorum; settings: for Plant response rating, Ryegrass, Italian: 0 to 100 scale where 0 is no effect and 100 is complete control
Summary of the method: as §1

Heteranthera limosa = assay: Test B flooded paddy test; type: in vivo; settings: Flood, 250 g ai/ha; 0 to 100 scale where 0 is no effect and 100 is complete control
Summary of the method: as §2

giant foxtail [7] = assay: Test A postemergence; type: in vivo, Setaria faberii
Summary of the method: as §1

giant foxtail [8] = assay: Test A preemergence; type: in vivo, Setaria faberii; settings: for Plant response rating, Foxtail, Giant: 0 to 100 scale where 0 is no effect and 100 is complete control
Summary of the method: as §1

wheat = assay: Test A postemergence; type: in vivo, Triticum aestivum; settings: for Plant response rating, Wheat: 0 to 100 scale, 0 no effect, 100 complete control
Summary of the method: as §1

barnyardgrass [9] = assay: Test A postemergence; type: in vivo, Echinochloa crus-galli
Summary of the method: as §1

ragweed [10] = assay: Test A postemergence; type: in vivo, Ambrosia elatior; settings: for Plant response rating, Ragweed: 0 to 100 scale, 0 no effect, 100 complete control
Summary of the method: as §1

rice = assay: Test B flooded paddy test; type: in vivo, Oryza sativa; settings: Flood, 250 g ai/ha; 0 to 100 scale where 0 is no effect and 100 is complete control
Summary of the method: as §2

barnyardgrass [11] = assay: Test A preemergence; type: in vivo, Echinochloa crus-galli; settings: for Plant response rating, Barnyardgrass: 0 to 100 scale where 0 is no effect and 100 is complete control
Summary of the method: as §1

kochia [12] = assay: Test A postemergence; type: in vivo, Kochia scoparia
Summary of the method: as §1

pigweed [13] = assay: Test A preemergence; type: in vivo, Amaranthus retroflexus; settings: for Plant response rating, Pigweed: 0 to 100 scale where 0 is no effect and 100 is complete control
Summary of the method: as §1

blackgrass = assay: Test A postemergence; type: in vivo, Alopecurus myosuroides
Summary of the method: as §1

sedge, umbrella = assay: Test B flooded paddy test; type: in vivo, Cyperus difformis; settings: Flood, 250 g ai/ha; 0 to 100 scale where 0 is no effect and 100 is complete control
Summary of the method: as §2

[14] = 31 g ai/ha, visual, approximately 10 days
[15] = 31 g ai/ha, 0 to 100 scale, 0 no effect, 100 complete control
[16] = 125 g ai/ha, 0 to 100 scale, 0 no effect, 100 complete control
[17] = 125 g ai/ha, 0 to 100 scale where 0 is no effect and 100 is complete control

## Fc1cccc(Oc2ncc(Cl)cn2)c1-n1cc(OC(F)F)cn1 [Compound 271]
Kochia [1]; [14]
  Plant response rating, Kochia: 70
Kochia [1]; 125 g ai/ha
  Kochia plant response rating (0 to 100 scale): 100
Barnyardgrass [2]
  Plant response rating, Barnyardgrass: 0
Ragweed [3]; [14]
  Plant response rating, Ragweed: 0
Ragweed [3]; 125 g ai/ha
  Ragweed plant response rating (0 to 100 scale): 20
galium; [15]
  Plant response rating, Galium: 70
galium; [16]
  Plant response rating, Galium: 100
corn; [15]
  Plant response rating, Corn: 20
corn; [16]
  Plant response rating, Corn: 30
Pigweed [4]; 31 g ai/ha
  Plant response rating, Pigweed: 70
Pigweed [4]; 125 g ai/ha
  Plant response rating, Pigweed: 100
Italian ryegrass [5]; 31 g ai/ha
  Plant response rating, Ryegrass, Italian: 0
Italian ryegrass [5]; 125 g ai/ha
  Plant response rating, Ryegrass, Italian: 30
Italian ryegrass [6]; [14]
  Plant response rating, Ryegrass, Italian: 0
Italian ryegrass [6]; 125 g ai/ha
  Ryegrass, Italian plant response rating (0 to 100 scale): 10
Heteranthera limosa
  Plant response rating, Ducksalad: 90
Giant foxtail [7]; [15]
  Plant response rating, Foxtail, Giant: 10
Giant foxtail [7]; [16]
  Plant response rating, Foxtail, Giant: 90
Giant foxtail [8]; [14]
  Plant response rating, Foxtail, Giant: 40
Giant foxtail [8]; 125 g ai/ha
  Foxtail, Giant plant response rating (0 to 100 scale): 100
wheat; 31 g ai/ha
  Plant response rating, Wheat: 0
wheat; 125 g ai/ha
  Plant response rating, Wheat: 40
Barnyardgrass [9]; [15]
  Plant response rating, Barnyardgrass: 10
Barnyardgrass [9]; [16]
  Plant response rating, Barnyardgrass: 80
Ragweed [10]; 31 g ai/ha
  Plant response rating, Ragweed: 0
Ragweed [10]; 125 g ai/ha
  Plant response rating, Ragweed: 80
rice
  Plant response rating, Rice: 0
Barnyardgrass [11]; [14]
  Plant response rating, Barnyardgrass: 20
Barnyardgrass [11]; 125 g ai/ha
  Barnyardgrass plant response rating (0 to 100 scale, 0 is no effect, 100 is complete control): 100
Kochia [12]; [15]
  Plant response rating, Kochia: 70
Kochia [12]; [16]
  Plant response rating, Kochia: 100
Pigweed [13]; [14]
  Plant response rating, Pigweed: 90
Pigweed [13]; 125 g ai/ha
  Pigweed plant response rating (0 to 100 scale): 100
blackgrass; [15]
  Plant response rating, Blackgrass: 10
blackgrass; [16]
  Plant response rating, Blackgrass: 80
sedge, umbrella
  Plant response rating, Sedge, Umbrella: 60

## FC(F)Oc1cnn(-c2c(Br)cccc2Oc2ncc(Cl)cn2)c1 [Compound 122]
Kochia [1]; 31 g ai/ha
  Kochia plant response rating (0 to 100 scale): 20
Kochia [1]; 125 g ai/ha
  Plant response rating, Kochia: 100
Barnyardgrass [2]
  Plant response rating, Barnyardgrass: 0
Ragweed [3]; 31 g ai/ha
  Ragweed plant response rating (0 to 100 scale): 0
Ragweed [3]; 125 g ai/ha
  Plant response rating, Ragweed: 0
galium; [15]
  Plant response rating, Galium: 20
galium; [17]
  Galium plant response rating: 40
corn; [15]
  Plant response rating, Corn: 10
corn; [17]
  Corn plant response rating: 30
Pigweed [4]; 31 g ai/ha
  Plant response rating, Pigweed: 70
Pigweed [4]; [17]
  Pigweed plant response rating: 100
Italian ryegrass [5]; 31 g ai/ha
  Plant response rating, Ryegrass, Italian: 0
Italian ryegrass [5]; [17]
  Ryegrass, Italian plant response rating: 20
Italian ryegrass [6]; 31 g ai/ha
  Ryegrass, Italian plant response rating (0 to 100 scale): 0
Italian ryegrass [6]; 125 g ai/ha
  Plant response rating, Ryegrass, Italian: 0
Heteranthera limosa
  Plant response rating, Ducksalad: 80
Giant foxtail [7]; [15]
  Plant response rating, Foxtail, Giant: 10
Giant foxtail [7]; [17]
  Foxtail, Giant plant response rating: 60
Giant foxtail [8]; 31 g ai/ha
  Foxtail, Giant plant response rating (0 to 100 scale): 50
Giant foxtail [8]; 125 g ai/ha
  Plant response rating, Foxtail, Giant: 100
wheat; 31 g ai/ha
  Plant response rating, Wheat: 0
wheat; [17]
  Wheat plant response rating: 10
Barnyardgrass [9]; [15]
  Plant response rating, Barnyardgrass: 10
Barnyardgrass [9]; [17]
  Barnyardgrass plant response rating: 40
Ragweed [10]; 31 g ai/ha
  Plant response rating, Ragweed: 10
Ragweed [10]; [17]
  Ragweed plant response rating: 30
rice
  Plant response rating, Rice: 0
Barnyardgrass [11]; 31 g ai/ha
  Barnyardgrass plant response rating (0 to 100 scale): 10
Barnyardgrass [11]; 125 g ai/ha
  Plant response rating, Barnyardgrass: 70
Kochia [12]; [15]
  Plant response rating, Kochia: 50
Kochia [12]; [17]
  Kochia plant response rating: 90
Pigweed [13]; 31 g ai/ha
  Pigweed plant response rating (0 to 100 scale): 80
Pigweed [13]; 125 g ai/ha
  Plant response rating, Pigweed: 100
blackgrass; [15]
  Plant response rating, Blackgrass: 30
blackgrass; [17]
  Blackgrass plant response rating: 80
sedge, umbrella
  Plant response rating, Sedge, Umbrella: 75

## FC(F)(F)Sc1cnn(-c2ccccc2Oc2ncc(Br)cn2)c1 [Compound 246]
Kochia [1]; [14]
  Plant response rating, Kochia: 0
Kochia [1]; 125 g ai/ha
  Kochia plant response rating (0 to 100 scale): 0
Barnyardgrass [2]
  Plant response rating, Barnyardgrass: 0
Ragweed [3]; [14]
  Plant response rating, Ragweed: 0
Ragweed [3]; 125 g ai/ha
  Ragweed plant response rating (0 to 100 scale): 0
galium; [15]
  Plant response rating, Galium: 20
galium; [16]
  Plant response rating, Galium: 70
corn; [15]
  Plant response rating, Corn: 0
corn; [16]
  Plant response rating, Corn: 20
Pigweed [4]; 31 g ai/ha
  Plant response rating, Pigweed: 20
Pigweed [4]; 125 g ai/ha
  Plant response rating, Pigweed: 40
Italian ryegrass [5]; 31 g ai/ha
  Plant response rating, Ryegrass, Italian: 0
Italian ryegrass [5]; 125 g ai/ha
  Plant response rating, Ryegrass, Italian: 0
Italian ryegrass [6]; [14]
  Plant response rating, Ryegrass, Italian: 0
Italian ryegrass [6]; 125 g ai/ha
  Ryegrass, Italian plant response rating (0 to 100 scale): 0
Heteranthera limosa
  Plant response rating, Ducksalad: 0
Giant foxtail [7]; [15]
  Plant response rating, Foxtail, Giant: 0
Giant foxtail [7]; [16]
  Plant response rating, Foxtail, Giant: 0
Giant foxtail [8]; [14]
  Plant response rating, Foxtail, Giant: 0
Giant foxtail [8]; 125 g ai/ha
  Foxtail, Giant plant response rating (0 to 100 scale): 70
wheat; 31 g ai/ha
  Plant response rating, Wheat: 0
wheat; 125 g ai/ha
  Plant response rating, Wheat: 0
Barnyardgrass [9]; [15]
  Plant response rating, Barnyardgrass: 0
Barnyardgrass [9]; [16]
  Plant response rating, Barnyardgrass: 0
Ragweed [10]; 31 g ai/ha
  Plant response rating, Ragweed: 0
Ragweed [10]; 125 g ai/ha
  Plant response rating, Ragweed: 0
rice
  Plant response rating, Rice: 0
Barnyardgrass [11]; [14]
  Plant response rating, Barnyardgrass: 0
Barnyardgrass [11]; 125 g ai/ha
  Barnyardgrass plant response rating (0 to 100 scale, 0 is no effect, 100 is complete control): 30
Kochia [12]; [15]
  Plant response rating, Kochia: 20
Kochia [12]; [16]
  Plant response rating, Kochia: 70
Pigweed [13]; [14]
  Plant response rating, Pigweed: 0
Pigweed [13]; 125 g ai/ha
  Pigweed plant response rating (0 to 100 scale): 20
blackgrass; [15]
  Plant response rating, Blackgrass: 0
blackgrass; [16]
  Plant response rating, Blackgrass: 0
sedge, umbrella
  Plant response rating, Sedge, Umbrella: 0

## Fc1cnc(Oc2cccc(Cl)c2-n2cc(OC(F)F)cn2)nc1 [Compound 101]
Kochia [1]; 31 g ai/ha
  Kochia plant response rating (0 to 100 scale): 70
Kochia [1]; 125 g ai/ha
  Plant response rating, Kochia: 70
Barnyardgrass [2]
  Plant response rating, Barnyardgrass: 0
Ragweed [3]; 31 g ai/ha
  Ragweed plant response rating (0 to 100 scale): 0
Ragweed [3]; 125 g ai/ha
  Plant response rating, Ragweed: 30
galium; [15]
  Plant response rating, Galium: 40
galium; [17]
  Plant response rating, Galium: 60
corn; [15]
  Plant response rating, Corn: 10
corn; [17]
  Plant response rating, Corn: 20
Pigweed [4]; 31 g ai/ha
  Plant response rating, Pigweed: 90
Italian ryegrass [5]; 31 g ai/ha
  Plant response rating, Ryegrass, Italian: 0
Italian ryegrass [6]; 31 g ai/ha
  Ryegrass, Italian plant response rating (0 to 100 scale): 0
Italian ryegrass [6]; 125 g ai/ha
  Plant response rating, Ryegrass, Italian: 0
Heteranthera limosa
  Plant response rating, Ducksalad: 0
Giant foxtail [7]; [15]
  Plant response rating, Foxtail, Giant: 20
Giant foxtail [7]; [17]
  Plant response rating, Foxtail, Giant: 60
Giant foxtail [8]; 31 g ai/ha
  Foxtail, Giant plant response rating (0 to 100 scale): 70
Giant foxtail [8]; 125 g ai/ha
  Plant response rating, Foxtail, Giant: 90
wheat; 31 g ai/ha
  Plant response rating, Wheat: 20
Barnyardgrass [9]; [15]
  Plant response rating, Barnyardgrass: 20
Barnyardgrass [9]; [17]
  Plant response rating, Barnyardgrass: 20
Ragweed [10]; 31 g ai/ha
  Plant response rating, Ragweed: 50
rice
  Plant response rating, Rice: 0
Barnyardgrass [11]; 31 g ai/ha
  Barnyardgrass plant response rating (0 to 100 scale): 60
Barnyardgrass [11]; 125 g ai/ha
  Plant response rating, Barnyardgrass: 70
Kochia [12]; [15]
  Plant response rating, Kochia: 70
Kochia [12]; [17]
  Plant response rating, Kochia: 100
Pigweed [13]; 31 g ai/ha
  Pigweed plant response rating (0 to 100 scale): 90
Pigweed [13]; 125 g ai/ha
  Plant response rating, Pigweed: 100
blackgrass; [15]
  Plant response rating, Blackgrass: 20
blackgrass; [17]
  Plant response rating, Blackgrass: 20
sedge, umbrella
  Plant response rating, Sedge, Umbrella: 0
